Laboratory results as given in paper PMC7002685, “Inhibition of vascular calcification by inositol phosphates derivatized with ethylene glycol oligomers” (Nature Communications, 2020).
Where “and” joins values, the source holds several entries; their conditions need not be identical. Identical values can stand only once. Like-named read-outs stand apart in the source and are kept apart here.

Columns and labels:
[1] = system: primary human VSMCs; test: High-CaP medium-induced VSMC calcification; type: cell-based; conditions: for VSMC calcium deposition, % of high-CaP control: high-CaP medium, 5 days
Description: Incubation of VSMCs in high-CaP medium induced cell monolayer calcification after 5 days (Fig. 3b). […] The effect became significant from 0.1 µM (OEG2)2-IP4 on, where a 54% reduction in calcification was observed compared to untreated high-CaP medium-exposed cells.
Primary human VSMCs (C-12533, PromoCell, Heidelberg, Germany) were cultured according to the manufacturer's guidelines in SMC-2 culture medium (C-22062, PromoCell) and used up to passage 7. For calcification experiments cells were seeded onto 24-well plates (TPP) at a density of 20,000 cells/well and left to attach for 48–72 h. Complete medium was M199 medium (31150022, Thermo Fischer Scientific), supplemented with 10% v/v FBS (10270106, Thermo Fisher Scientific, Waltham, MA), 1% v/v penicillin/streptomycin (15140122, Thermo Fisher Scientific), and 4 mM L-glutamine (25030024, Thermo Fisher Scientific)[80]. Calcification of cell monolayers was induced as described previously[81] by treatment with CPP2-supplemented (50 µg Ca/mL) medium with or without test compounds (1, 3, 10, 30, and 100 µM) at a volume of 1 mL/well for 48 h at 37 °C, 5% CO2. In a second assay, calcification was induced similar to previous experiments[56] by cell treatment with or without test compounds (0.01, 0.1, 1, 10, and 100 µM) in complete medium supplemented with calcium (2.7 mM) and phosphate (2.5 mM) (CaP medium) at a volume of 1 mL/well for 5 days, and treatment medium was replaced on alternate days.
Calcium deposition on cell monolayers was assessed qualitatively by staining for calcium with 2% w/v Alizarin Red S aqueous solution (pH 4.2) (05600, Fluka Analytical). Cell monolayers in 24-well plates were washed with PBS (10010015, Thermo Fischer), fixed in 10% v/v NBF in PBS (F8775, Sigma-Aldrich) for 45 min at RT, washed with milli-Q water, incubated for 3 min with 300 µL Alizarin Red S solution, washed with milli-Q, and images were acquired using a Axiovert 35 microscope (Zeiss, Carl Zeiss Microscopy GmbH, Jena, Germany) at ×100 magnification. Calcium quantitation was performed after washing cells with PBS and then decalcifying cell monolayers with 0.1 M HCl overnight at 4 °C. Acidic supernatants were centrifuged (10,000 × g, 4 °C, 10 min) and calcium content was assessed using the calcium colorimetric assay.

[2] = Macrophage viability (MTS) with CPP2 and compounds; type: cell-based, human; conditions: human, THP-1-derived macrophages, read-out: Macrophage viability (MTS), % of medium control; for viability at 24 h, 3 µM: 3 µM + CPP2, replicates Fig. 3i; for viability at 24 h, 10 µM: 10 µM + CPP2; for viability at 24 h, 30 µM: 30 µM + CPP2; for viability at 24 h, 100 µM: 100 µM + CPP2
Description: (§1) Macrophage accumulation and inflammation coincide with the initial phase of calcification. To this end, VSMCs and THP-1-derived macrophages were exposed to CPP2-supplemented medium. CPP2 prepared from human serum as described previously[61] (Supplementary Figs. 6 and 7), induced a pronounced VSMC monolayer calcification after 48 h, which was decreased by (OEG2)2-IP4 in a dose-dependent fashion, and the effect became significant at 10 µM (Fig. 3e). […] Both H2O2 (proxy for oxidative stress) and tumor necrosis factor-alpha (TNF-α) (proxy for inflammatory response) levels were assayed in the VSMC culture supernatants subsequent to CPP2 treatment with and without compounds[30]. However, no increase in H2O2 nor TNF-α compared to control could be detected in either assay. For the CPP-induced VSMC calcification assay (Fig. 3e) a roughly 10-fold higher concentration of (OEG2)2-IP4 was necessary to achieve similar activity as in the CaP-induced VSMC calcification assay (Fig. 3b). […] In the CaP assay, low inhibitor concentration may be sufficient to inhibit crystal nucleation, whereas for the CPP assay higher inhibitor concentrations may be needed to achieve sufficient particle stabilization by chemisorption of inhibitor onto CPPs. Similar results have been reported for hydrogen sulfide in the context of VC[62],[64]. […] An increase in the TNFα levels in the cell culture supernatants was not observed for (OEG2)2-IP4 with (Fig. 3h) and without (Supplementary Fig. 10) combined CPP2 treatment.
(§2) THP-1 cells were plated at a density of 200,000 cells/well in a 24-well plate, differentiated as stated above, and subsequently treated with or without CPP2 (50 μg Ca/mL) in complete medium with or without test compounds (3, 10, 30, 100 μM) for 24 h at 37 °C, 5% CO2.
(§3) Cell viability was assessed using the MTS assay (CellTiter 96® Aqueous One Solution Cell Proliferation Assay, G3580; Promega, Madison, WI, USA) according to the manufacturer’s instructions. Assays using combined treatment of CPPs or CaP and test compounds were performed in 24-well plates using 20,000 cells per well and assays using test compounds only were performed in a 96-well plate format with a seeding density of 10,000 (VSMC) or 50,000 (THP-1) cells per well, respectively. For controls, cells were treated with respective complete medium only and results were calculated as % of control.

[3] = system: THP-1-derived macrophages; test: Macrophage viability (MTS) with CPP2 and compounds; type: cell-based, human
Description: as §1, §2, §3

[4] = PK in healthy rats, s.c.; type: in vivo, male Sprague-Dawley rats; conditions: for MRT: read-out: mean residence time (MRT) (converted); for plasma concentration: unit not given
[5] = 3 µM + CPP2, replicates Fig. 3i, 3 µM
[6] = male, Sprague-Dawley, rat, in vivo, sc, 10 mg/kg s.c.
[7] = male, Sprague-Dawley, rat, in vivo, sc, 50 mg/kg s.c.
[8] = male, Sprague-Dawley, rat, plasma, sc, 100 mg/kg s.c.

## COCCOCCO[C@@H]1[C@@H](OP(=O)(O)O)[C@H](OCCOCCOC)[C@@H](OP(=O)(O)O)[C@@H](OP(=O)(O)O)[C@H]1OP(=O)(O)O [(OEG2)2-IP4, 4,6-Di-O-(methoxy-diethyleneglycol)-myo-inositol-1,2,3,5-tetrakis(phosphate)]
[1]; 0.01 µM, replicates Fig. 3b
  VSMC calcium deposition, % of high-CaP control: 129.5% and 91.16% and 131.6%
[1]; 0.1 µM
  reduction in calcification vs untreated high-CaP medium-exposed cells: 54%
  VSMC calcium deposition, % of high-CaP control: 56.69% and 37.74% and 44.37%
[1]; 1 µM
  VSMC calcium deposition, % of high-CaP control: 4.7% and 5.812% and 10.69%
[1]; 10 µM
  VSMC calcium deposition, % of high-CaP control: 4.402% and -0.7134% and 6.025%
[1]; 100 µM
  VSMC calcium deposition, % of high-CaP control: 4.139% and 1.382% and 4.723%
[1]; above 1 µM
  calcium deposition: almost completely abrogated
[2]
  viability at 24 h, 3 µM: 100%
  viability at 24 h, 10 µM: 97.5%
  viability at 24 h, 30 µM: 96.5%
  viability at 24 h, 100 µM: 99.1%
[3]; [5]
  Macrophage viability (MTS), % of medium control: 98.1% and 100.05%
[3]; 10 µM + CPP2, 10 µM
  Macrophage viability (MTS), % of medium control: 99.92% and 100.59%
[3]; 30 µM + CPP2, 30 µM
  Macrophage viability (MTS), % of medium control: 96.73% and 98.39%
[3]; 100 µM + CPP2, 100 µM
  Macrophage viability (MTS), % of medium control: 94.54% and 99.09%
[4]; male, Sprague-Dawley, rat, in vivo, sc, 10 mg/kg, 10 mg/kg s.c., t = 360 min
  AUC(0-t): 19.8 µM·h
[4]; male, Sprague-Dawley, rat, in vivo, sc, 50 mg/kg, 50 mg/kg s.c., tlast 1440 min
  AUC(0-t): 120 µM·h
[4]; [6]
  AUC(0-inf): 19.9 µM·h
  Tmax: 25 min
[4]; male, Sprague-Dawley, rat, in vivo, sc, 10 mg/kg s.c., healthy rats
  half-life: 47 ± 1 min
[4]; male, Sprague-Dawley, rat, in vivo, sc, 10 mg/kg s.c., read-out: Cmax
  Cmax: 12 ± 1 µM
[4]; [7]
  AUC(0-inf): 122 µM·h
  half-life: 190 ± 66 min
[4]; male, Sprague-Dawley, rat, in vivo, sc, 50 mg/kg s.c., read-out: Cmax
  Cmax: 71 ± 26 µM
[4]; male, Sprague-Dawley, rat, in vivo, sc
  MRT: 78 min

## O=P(O)(O)O[C@H]1[C@H](OP(=O)(O)O)[C@@H](OP(=O)(O)O)[C@H](OP(=O)(O)O)[C@@H](OP(=O)(O)O)[C@H]1OP(=O)(O)O [IP6, myo-Inositol hexakisphosphate]
[1]; 0.01 µM, replicates Fig. 3b
  VSMC calcium deposition, % of high-CaP control: 45.78% and 57.03% and 44%
[1]; 1 µM
  VSMC calcium deposition, % of high-CaP control: 43.35% and 32.19% and 33.2%
[1]; 10 µM
  VSMC calcium deposition, % of high-CaP control: 27.4% and 34.12% and 27.96%
[1]; all doses studied (up to 100 µM)
  reduction of VSMC mineralization: 50–70%
[2]
  viability at 24 h, 3 µM: 100%
  viability at 24 h, 10 µM: 98%
  viability at 24 h, 30 µM: 95.5%
  viability at 24 h, 100 µM: 69.2%
[3]; [5]
  Macrophage viability (MTS), % of medium control: 102.11% and 100.63%
[3]; 10 µM + CPP2, 10 µM
  Macrophage viability (MTS), % of medium control: 99.19%
[3]; 30 µM + CPP2, 30 µM
  Macrophage viability (MTS), % of medium control: 96.22% and 102.8%
[3]; 100 µM + CPP2
  reduction of macrophage viability: 24%
[3]; 100 µM + CPP2, 100 µM
  Macrophage viability (MTS), % of medium control: 79.04% and 78.68%
[4]; 10 mg/kg s.c.
  plasma concentrations (below lower limit of quantification): < 0.772 µM
[4]; 10 mg/kg s.c., LLOQ = 772 nM
  Cmax: < LLOQ
[4]; 100 mg/kg s.c., 5 min
  plasma concentration: 20.1 and 17.5 and 23.6
[4]; 100 mg/kg s.c., 0.5 h
  plasma concentration: 13.6 and 19.8 and 10.3
[4]; [8]
  AUC(0-inf): 22.4 µM·h
  Tmax: 12 min
  half-life: 29 ± 15 min
[4]; male, Sprague-Dawley, rat, plasma, sc, 100 mg/kg s.c., t = 90 min (Fig. 4d; tlast 360 in Suppl. Table 2)
  AUC(0-t): 19.4 µM·h
[4]; male, Sprague-Dawley, rat, plasma, sc, 100 mg/kg s.c., read-out: Cmax
  Cmax: 33 ± 10 µM
[4]; male, Sprague-Dawley, rat, plasma, sc
  MRT: 45 min
